Measurements as given in paper PMC6237300, “Influenza B viruses circulated during last 5 years in Mongolia” (PLoS ONE, 2018).

Key:
[1] = target: NA of B/Ulaanbaatar/1495/2014 (E105K) (Influenza B virus, UniProt U5XBU0, E105K); format: biochemical
[2] = target: NA of B/Khentii/1137/2014 (G140R) (Influenza B virus, UniProt U5XBU0, G140R); format: biochemical
[3] = target: NA of B/Ulaanbaatar/1113/2014 (I114T) (Influenza B virus, UniProt U5XBU0, I114T); format: biochemical
[4] = target: NA of B/Darkhan/1484/2014 (H101N, E105K) (Influenza B virus, UniProt U5XBU0, E105K/H101N); format: biochemical
[5] = target: NA of B/Ulaanbaatar/1708/2014 (G104R) (Influenza B virus, UniProt U5XBU0, G104R); format: biochemical
[6] = system: neuraminidase of the influenza B virus with H273Y mutation; settings: cited from earlier work

| Compound | susceptibility category [1] | susceptibility category [2] | susceptibility category [3] | susceptibility category [4] | Fold increase [5] | IC50 [5] | Fold increase [1] | IC50 [1] | resistance of H273Y mutant [6] | Fold increase [2] | IC50 [2] | Fold increase [3] | IC50 [3] | Fold increase [4] | IC50 [4] |
| --- | --- | --- | --- | --- | --- | --- | --- | --- | --- | --- | --- | --- | --- | --- | --- |
| [H]/N=C(\N)N[C@H]1C=C(C(=O)O)O[C@@H]([C@H](OC)[C@H](O)CO)[C@@H]1NC(C)=O [Laninamivir, laninamivir] | reduced susceptibility | sensitive | sensitive | reduced susceptibility |  |  |  |  |  |  |  |  |  |  |  |
| CCC(CC)[C@H](NC(C)=O)[C@@H]1[C@H](O)[C@@H](C(=O)O)C[C@H]1N=C(N)N [Peramivir, peramivir] | highly reduced susceptibility | reduced susceptibility | reduced susceptibility | highly reduced susceptibility | >100000 | 288000 nM | 5000 | 3270 nM | resistant | 10 | 7.18 nM | 10 | 11.8 nM | 2500 | 1530 nM |
